Experimental findings from US9296723B2, “NAMPT inhibitors” (AbbVie Inc., priority 2012, dated 2016) are described below.

The target in assay [1] is T1, NAMPT (Homo sapiens, UniProt P43490). The experiment in a line: TR-FRET Binding Assay of NAMPT with PRPP. To be noted: 2 nM NAMPT, 2 nM probe, 200 µM PRPP and 2.5 mM ATP, equilibrated 16 hours. The gist of the method:
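Substrates present: PRPP at 200 µM and ATP at 2.5 mM, final, alongside 2 nM enzyme, 2 nM tracer and 1 nM terbium anti-His donor in 2% DMSO. A 16-hour equilibration preceded the time-resolved FRET read, allowing compounds to be enzymatically modified.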
On the technique in general: TR-FRET usually uses a lanthanide donor and a delayed reading to cut background.

The test system of assay [2] is PC3 cells. The experiment in a line: NAMPT Cell Proliferation Assay (Cell Titer Glo). The class given is cell-based. Particulars: Homo sapiens, PC-3, 120 h, incubated 5 days, cell viability. The gist of the method: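 Viability measured by Cell Titer Glo luminescence after 5-day exposure of attached PC3 cells to compound, dosed as 10-fold serial dilutions ([…]) in RPMI/10% FBS at 37 °C and 5% CO2. Percent inhibition fitted to sigmoidal dose-response curves for IC50.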

The target in assay [3] is T1, NAMPT. Nature of the assay: Time-Resolved Fluorescence Resonance Energy Transfer (TR-FRET) Binding Assay of NAMPT. Particulars: 6.8 nM NAMPT, 200 nM probe, equilibrated 3 hours, no substrates. In outline:
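IC50s come from four-parameter logistic fits of control-normalized Em520/Em495 TR-FRET ratios (Ex 337 nm) against compound concentration. Before reading, enzyme, probe, antibody and compound equilibrated for 3 h at room temperature.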

T1 sequence (P43490 whole entry): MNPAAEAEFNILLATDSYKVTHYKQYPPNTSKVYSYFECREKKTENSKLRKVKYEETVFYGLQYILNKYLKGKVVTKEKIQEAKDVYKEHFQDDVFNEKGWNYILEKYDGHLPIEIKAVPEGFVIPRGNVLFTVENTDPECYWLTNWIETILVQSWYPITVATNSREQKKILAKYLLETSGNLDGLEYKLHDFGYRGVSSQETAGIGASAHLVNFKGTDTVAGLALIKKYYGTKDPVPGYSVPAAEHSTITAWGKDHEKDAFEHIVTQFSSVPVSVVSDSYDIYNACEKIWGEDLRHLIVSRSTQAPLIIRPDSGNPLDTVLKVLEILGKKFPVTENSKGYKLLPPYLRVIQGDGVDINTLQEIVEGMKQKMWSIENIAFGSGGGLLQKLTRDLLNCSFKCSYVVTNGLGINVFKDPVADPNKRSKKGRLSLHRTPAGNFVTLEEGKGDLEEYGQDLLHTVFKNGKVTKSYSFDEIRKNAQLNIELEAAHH

For the compound `CC1CC1C(=O)N1CC(Oc2ccc(NC(=O)N3CC(c4cccnc4)C3)cc2)C1` (stereo not drawn) [Example 125, N-[4-({1-[(2-methylcyclopropyl)carbonyl]azetidin-3-yl}oxy)phenyl]-3-(pyridin-3-yl)azetidine-1-carboxamide], the IC50 in assay [1] was determined as 0.271 nM; in assay [2], 8.12 nM; in assay [3] it was 29.3 nM.
For `CC[C@H](C)C(=O)N1CCC(Oc2ccc(NC(=O)N3CC(c4cccnc4)C3)cc2)CC1` [Example 4, N-[4-({1-[(2S)-2-methylbutanoyl]piperidin-4-yl}oxy)phenyl]-3-(pyridin-3-yl)azetidine-1-carboxamide], the results for the IC50 in assay [1], in assay [2] and in assay [3] were 0.195 nM, 14 nM and 19.7 nM, respectively.
The like results for `CCC(C)CC(=O)N1CCC(Oc2ccc(NC(=O)N3CC(c4cccnc4)C3)cc2)CC1` (stereo not drawn) [Example 41, N-(4-{[1-(3-methylpentanoyl)piperidin-4-yl]oxy}phenyl)-3-(pyridin-3-yl)azetidine-1-carboxamide] were, in that order, 0.448 nM, 69.8 nM and 76.8 nM.
The like results for `COCC(=O)N1CC[C@@H](Oc2ccc(NC(=O)N3CC(c4cccnc4)C3)cc2)C1` [Example 331, N-(4-{[(3R)-1-(methoxyacetyl)pyrrolidin-3-yl]oxy}phenyl)-3-(pyridin-3-yl)azetidine-1-carboxamide] were, in that order, 0.351 nM, 42.4 nM and 81 nM.
The like results for `CC(C)(C)CC(=O)N1CC=C(c2ccc(NC(=O)N3CC(c4cccnc4)C3)cc2)CC1` [Example 17, N-{4-[1-(3,3-dimethylbutanoyl)-1,2,3,6-tetrahydropyridin-4-yl]phenyl}-3-(pyridin-3-yl)azetidine-1-carboxamide] were, in that order, 0.568 nM, 36.8 nM and 16.9 nM.
As to `CC(C)(C)CC(=O)N1CC(Oc2ccc(NC(=O)N3CC(c4cccnc4)C3)cc2)C1` [Example 133, N-(4-{[1-(3,3-dimethylbutanoyl)azetidin-3-yl]oxy}phenyl)-3-(pyridin-3-yl)azetidine-1-carboxamide], the IC50 in assay [1] is 0.358 nM; in assay [2] it was 4.43 nM; in assay [3], 13.2 nM.
The like results for `CC(C)C(C)C(=O)N1CC[C@@H](Oc2ccc(NC(=O)N3CC(c4cccnc4)C3)cc2)C1` (stereo partly drawn) [Example 335, N-(4-{[(3R)-1-(2,3-dimethylbutanoyl)pyrrolidin-3-yl]oxy}phenyl)-3-(pyridin-3-yl)azetidine-1-carboxamide] were, in that order, 0.495 nM, 15.8 nM and 45.7 nM.
For the compound `O=C(Nc1ccc(C2CCN(C(=O)c3nccs3)C2)cc1)N1CC(c2cccnc2)C1` (stereo not drawn) [Example 267, 3-(pyridin-3-yl)-N-{4-[1-(1,3-thiazol-2-ylcarbonyl)pyrrolidin-3-yl]phenyl}azetidine-1-carboxamide], the IC50 in assay [1] stood at 0.297 nM; in assay [2], 17.8 nM; in assay [3] it was 22.5 nM.
The like results for `CN1CCN(CCC(=O)N2CCC(Oc3ccc(NC(=O)N4CC(c5cccnc5)C4)cc3)CC2)CC1` [Example 38, N-[4-({1-[3-(4-methylpiperazin-1-yl)propanoyl]piperidin-4-yl}oxy)phenyl]-3-(pyridin-3-yl)azetidine-1-carboxamide] were, in that order, 0.201 nM, 83.6 nM and 34.3 nM.
As for `O=C(Nc1ccc(C2CN(C(=O)C3CC3)C2)cc1)N1CC(c2cccnc2)C1` [Example 109, N-{4-[1-(cyclopropylcarbonyl)azetidin-3-yl]phenyl}-3-(pyridin-3-yl)azetidine-1-carboxamide], the IC50 in assay [1] came out at 0.596 nM; in assay [2], 110 nM; in assay [3], 306 nM.
The like results for `CC(C)CN1CCC(c2ccc(NC(=O)N3CC(c4cccnc4)C3)cc2)CC1` [Example 235, N-{4-[1-(2-methylpropyl)piperidin-4-yl]phenyl}-3-(pyridin-3-yl)azetidine-1-carboxamide] were, in that order, 0.213 nM, 993 nM and 649 nM.
The like results for `CC1CC1C(=O)N1CCC(c2ccc(NC(=O)N3CC(c4cccnc4)C3)cc2)C1` (stereo not drawn) [Example 262, N-(4-{1-[(2-methylcyclopropyl)carbonyl]pyrrolidin-3-yl}phenyl)-3-(pyridin-3-yl)azetidine-1-carboxamide] were, in that order, 0.252 nM, 51.6 nM and 60.4 nM.
The like results for `CC(=O)N1CC(Oc2ccc(NC(=O)N3CC(c4cccnc4)C3)cc2)C1` [Example 137, N-{4-[(1-acetylazetidin-3-yl)oxy]phenyl}-3-(pyridin-3-yl)azetidine-1-carboxamide] were, in that order, 0.44 nM, 51.6 nM and 98.8 nM.
As for `CC(C)C(=O)N1CC(c2ccc(NC(=O)N3CC(c4cccnc4)C3)cc2)C1` [Example 101, N-{4-[1-(2-methylpropanoyl)azetidin-3-yl]phenyl}-3-(pyridin-3-yl)azetidine-1-carboxamide], the IC50 in assay [1] worked out at 0.629 nM; in assay [2], 68.1 nM; in assay [3] it was 143 nM.
The like results for `Cc1ccsc1C(=O)N1CC[C@@H](Oc2ccc(NC(=O)N3CC(c4cccnc4)C3)cc2)C1` [Example 310, N-[4-({(3R)-1-[(3-methylthiophen-2-yl)carbonyl]pyrrolidin-3-yl]oxy}phenyl)-3-(pyridin-3-yl)azetidine-1-carboxamide] were, in that order, 0.297 nM, 2.76 nM and 4.54 nM.
`COCC(=O)N1CCC(c2ccc(NC(=O)N3CC(c4cccnc4)C3)cc2)CC1` [Example 184, N-{4-[1-(methoxyacetyl)piperidin-4-yl]phenyl}-3-(pyridin-3-yl)azetidine-1-carboxamide]: the IC50 in assay [1] is 0.305 nM; in assay [2], 61.2 nM; in assay [3], 18.5 nM.
On to `O=C(Nc1ccc(C2CCN(CC3CCOC3)CC2)cc1)N1CC(c2cccnc2)C1` (stereo not drawn) [Example 243, 3-(pyridin-3-yl)-N-{4-[1-(tetrahydrofuran-3-ylmethyl)piperidin-4-yl]phenyl}azetidine-1-carboxamide], for which the IC50 in assay [1] worked out at 0.326 nM; in assay [2] it was 1310 nM; in assay [3], 1270 nM.
The like results for `O=C(CN1CCOCC1)N1CC[C@@H](Oc2ccc(NC(=O)N3CC(c4cccnc4)C3)cc2)C1` [Example 302, N-(4-{[(3R)-1-(morpholin-4-ylacetyl)pyrrolidin-3-yl]oxy}phenyl)-3-(pyridin-3-yl)azetidine-1-carboxamide] were, in that order, 0.393 nM, 141 nM and 337 nM.
The like results for `CC[C@H](C)C(=O)N1CC[C@@H](Oc2ccc(NC(=O)N3CC(c4cccnc4)C3)cc2)C1` [Example 86, N-[4-({(3R)-1-[(2S)-2-methylbutanoyl]pyrrolidin-3-yl}oxy)phenyl]-3-(pyridin-3-yl)azetidine-1-carboxamide] were, in that order, 0.244 nM, 5.48 nM and 27.4 nM.
The like results for `O=C(Nc1ccc(C2CCN(C(=O)C3CCCC3)C2)cc1)N1CC(c2cccnc2)C1` (stereo not drawn) [Example 295, N-{4-[1-(cyclopentylcarbonyl)pyrrolidin-3-yl]phenyl}-3-(pyridin-3-yl)azetidine-1-carboxamide] were, in that order, 0.272 nM, 66.5 nM and 50.7 nM.
For the compound `O=C(Nc1ccc(C2CCN(C(=O)c3ccccc3)CC2)cc1)N1CC(c2cccnc2)C1` [Example 57, N-[4-(1-benzoylpiperidin-4-yl)phenyl]-3-(pyridin-3-yl)azetidine-1-carboxamide], the values for the IC50 in assay [1], in assay [2] and in assay [3] were 0.222 nM, 3.58 nM and 6.85 nM, respectively.
The like results for `O=C(CC1CCOCC1)N1CCC(Oc2ccc(NC(=O)N3CCN(c4cccnc4)CC3)cc2)CC1` [Example 162, 4-(pyridin-3-yl)-N-(4-{[1-(tetrahydro-2H-pyran-4-ylacetyl)piperidin-4-yl]oxy}phenyl)piperazine-1-carboxamide] were, in that order, 0.574 nM, 269 nM and 357 nM.
The like results for `O=C(Nc1ccc(O[C@@H]2CCN(C(=O)C3CC3)C2)cc1)N1CC(c2cccnc2)C1` [Example 85, N-(4-{[(3R)-1-(cyclopropylcarbonyl)pyrrolidin-3-yl]oxy}phenyl)-3-(pyridin-3-yl)azetidine-1-carboxamide] were, in that order, 0.325 nM, 48.9 nM and 117 nM.
The like results for `O=C(Nc1ccc(C2CCN(C(=O)c3ccco3)CC2)cc1)N1CC(c2cccnc2)C1` [Example 190, N-{4-[1-(furan-2-ylcarbonyl)piperidin-4-yl]phenyl}-3-(pyridin-3-yl)azetidine-1-carboxamide] were, in that order, 0.282 nM, 5.83 nM and 2 nM.
On to `CSCCC(=O)N1CC=C(c2ccc(NC(=O)N3CC(c4cccnc4)C3)cc2)CC1` [Example 24, N-(4-{1-[3-(methylsulfanyl)propanoyl]-1,2,3,6-tetrahydropyridin-4-yl}phenyl)-3-(pyridin-3-yl)azetidine-1-carboxamide], for which the IC50 in assay [1] stood at 0.988 nM; in assay [2], 113 nM; in assay [3], 170 nM.

In general, IC50 refers to the concentration that gives 50% inhibition.
